Consider nine compounds from PubChem BioAssay (NCI).

Among the test systems are UO-31 renal; SNB-75 CNS; A549 NSCLC; OVCAR-5 ovarian; SF-539 CNS; KM12 colon; SK-MEL-28 melanoma; U251 CNS; CAKI-1 renal; HT29 colon; OVCAR-3 ovarian; K-562 leukemia; OVCAR-8 ovarian; M14 melanoma; MDA-MB-435; SN12C renal; NCI-H226 lung; HCC-2998 colon.
Holding throughout (test): NCI-60 cell line screen, 48 h

The structures appear in SMILES notation.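 These data come from cells grown in 96-well plates and exposed to compound for 48 hours at five concentrations. TGI: concentration producing complete growth inhibition.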 Some results are limits rather than exact numbers.

Take `N#Cc1c2ccc([N+](=O)[O-])cc2c(=O)n2c1sc1ccc(C(F)(F)F)cc12`: the TGI in the assay with UO-31 renal, in the assay with SNB-75 CNS, in the assay on A549 NSCLC, in the assay with OVCAR-5 ovarian, in the assay with SF-539 CNS and in the assay with KM12 colon was more than 100 µM throughout. For the same compound, the TGI in the assay on SK-MEL-28 melanoma, in the assay with U251 CNS, in the assay with CAKI-1 renal, with HT29 colon, in the assay with OVCAR-3 ovarian and in the assay on K-562 leukemia was more than 100 µM in each case. Moreover, the TGI with OVCAR-8 ovarian, in the assay on M14 melanoma, in the assay on MDA-MB-435, with SN12C renal and in the assay on NCI-H226 lung was more than 100 µM throughout.
For the compound `COc1ccc2c(c1)c(=O)c1ccccc1n2/C=C/C(=O)O`, the TGI in the assay with UO-31 renal, with SNB-75 CNS, with A549 NSCLC, with OVCAR-5 ovarian, in the assay on SF-539 CNS and with KM12 colon was more than 100 µM each time. Moreover, the TGI with SK-MEL-28 melanoma, in the assay with U251 CNS, with CAKI-1 renal, in the assay with HT29 colon, with OVCAR-3 ovarian and with HCC-2998 colon was more than 100 µM throughout. Also, the TGI in the assay on K-562 leukemia, in the assay on OVCAR-8 ovarian, in the assay on M14 melanoma, with SN12C renal and in the assay on NCI-H226 lung was more than 100 µM each time.
`OCC(CN1CCCCC1)(CN1CCCCC1)CN1CCCCC1`: the TGI with UO-31 renal, in the assay with A549 NSCLC, in the assay with OVCAR-5 ovarian, in the assay with SF-539 CNS, in the assay on KM12 colon and in the assay with SK-MEL-28 melanoma was more than 100 µM in each case. For the same compound, the TGI in the assay with U251 CNS, in the assay with CAKI-1 renal, in the assay on HT29 colon, with OVCAR-3 ovarian, in the assay with HCC-2998 colon and with K-562 leukemia was more than 100 µM in each case. Moreover, the TGI with OVCAR-8 ovarian, in the assay on M14 melanoma, with MDA-MB-435, in the assay with SN12C renal and with NCI-H226 lung was more than 100 µM throughout.
Turning to `Cc1ccc(S(=O)(=O)N2CCN(S(=O)(=O)c3ccc(C)cc3)Cc3ccccc3C2)cc1`, the TGI with UO-31 renal, in the assay with A549 NSCLC, in the assay with SF-539 CNS, in the assay on KM12 colon, with SK-MEL-28 melanoma and in the assay with CAKI-1 renal was more than 100 µM throughout. Further, the TGI in the assay with HT29 colon, in the assay on OVCAR-3 ovarian, in the assay on HCC-2998 colon, in the assay on K-562 leukemia, with OVCAR-8 ovarian and in the assay on M14 melanoma was more than 100 µM each time. Further, the TGI with MDA-MB-435, with SN12C renal and in the assay on NCI-H226 lung was more than 100 µM throughout.
On to `CCOC(=O)Cc1nnc2c(-c3ccccc3)nc3ccccc3n12`, for which the TGI with UO-31 renal, in the assay on A549 NSCLC, in the assay on OVCAR-5 ovarian, in the assay with SF-539 CNS, with KM12 colon and in the assay on SK-MEL-28 melanoma was more than 100 µM each time. For the same compound, the TGI in the assay on U251 CNS is 48.4 µM; in the assay with HT29 colon, more than 100 µM; in the assay with OVCAR-3 ovarian it was 51.9 µM; in the assay on HCC-2998 colon it was 64.8 µM; in the assay on K-562 leukemia, more than 100 µM; with M14 melanoma, more than 100 µM. The TGI in the assay with MDA-MB-435, with SN12C renal and in the assay with NCI-H226 lung was more than 100 µM throughout.
In the case of `CCN1CCC(O)(c2ccc(C)cc2)C(C(=O)c2ccc(C)cc2)C1` (stereo not given), the TGI in the assay with UO-31 renal is more than 57.5 µM; with SNB-75 CNS, more than 100 µM; in the assay with A549 NSCLC, more than 100 µM; in the assay on OVCAR-5 ovarian it was 47.4 µM; in the assay on SF-539 CNS, more than 59.1 µM; in the assay on KM12 colon it was more than 91.9 µM. Also, the TGI in the assay on SK-MEL-28 melanoma was 56 µM; with U251 CNS, more than 83.9 µM; in the assay with CAKI-1 renal, 31.3 µM; with HT29 colon, 36.9 µM; with OVCAR-3 ovarian, 40.1 µM; with HCC-2998 colon, more than 100 µM. Moreover, the TGI in the assay with K-562 leukemia is more than 100 µM; in the assay on OVCAR-8 ovarian, 49.9 µM; in the assay with M14 melanoma it was more than 57.8 µM; in the assay on SN12C renal, 19.8 µM; in the assay on NCI-H226 lung, more than 100 µM.
For `CCOC(=O)c1c(N)nn2c1cc1cccccc12`, the TGI in the assay with A549 NSCLC was more than 100 µM; in the assay on OVCAR-5 ovarian, more than 100 µM; in the assay with SF-539 CNS it was more than 100 µM; with KM12 colon, 54.6 µM; in the assay with SK-MEL-28 melanoma, 83.3 µM; in the assay with U251 CNS it was 69.6 µM. Also, the TGI in the assay on CAKI-1 renal was more than 100 µM; in the assay with HT29 colon, more than 100 µM; in the assay with OVCAR-3 ovarian, more than 100 µM; in the assay with HCC-2998 colon, more than 100 µM; with OVCAR-8 ovarian, 73.1 µM; with M14 melanoma, more than 100 µM. Also, the TGI with MDA-MB-435 and in the assay on SN12C renal was more than 100 µM in each case.
On to `CCCN(CCCCC(NC(C)=O)C(=O)NCc1ccccc1)C(=O)N(C)N=O` (stereo not given), for which the TGI in the assay with UO-31 renal, with SNB-75 CNS, with A549 NSCLC, with OVCAR-5 ovarian, in the assay on SF-539 CNS and in the assay on KM12 colon was more than 100 µM throughout. Also, the TGI in the assay on SK-MEL-28 melanoma, in the assay with U251 CNS, in the assay with CAKI-1 renal, with HT29 colon, in the assay with OVCAR-3 ovarian and in the assay with HCC-2998 colon was more than 100 µM in each case. Moreover, the TGI in the assay with K-562 leukemia, with OVCAR-8 ovarian, in the assay with M14 melanoma, in the assay with SN12C renal and in the assay on NCI-H226 lung was more than 100 µM throughout.
For `COc1cc(N=CN(C)C)c2ncccc2c1`, the TGI with UO-31 renal, in the assay on SNB-75 CNS, in the assay on A549 NSCLC, with OVCAR-5 ovarian, in the assay on SF-539 CNS and in the assay with SK-MEL-28 melanoma was more than 100 µM in each case. Also, the TGI with U251 CNS was more than 100 µM; with CAKI-1 renal, more than 100 µM; in the assay with HT29 colon, more than 100 µM; in the assay with OVCAR-3 ovarian it was more than 100 µM; with K-562 leukemia, 47 µM; in the assay on OVCAR-8 ovarian, more than 100 µM. The TGI with M14 melanoma, with MDA-MB-435, in the assay with SN12C renal and in the assay on NCI-H226 lung was more than 100 µM in each case.
